In ChEMBL document CHEMBL3351737, “Design, synthesis and exploring the quantitative structure-activity relationship of some antioxidant flavonoid analogues” (Bioorg Med Chem Lett, 2014) one finds IC50 data, which are given here for 41 compounds.

The first series can be described thus: Antioxidant activity assessed as DPPH radical scavenging activity incubated at room temperature for 20 mins by UV-visible spectrophotometry.
Conditions: not given
For the compound `O=C(O)c1ccccc1O` [SALICYLIC ACID], the concentration for half-maximal inhibition (IC50) was 278 mM.

The series is the same for the next values; noted with them: DPPH radical (cell-free).
As to `O=c1c(O)c(/C=C/c2ccccc2)oc2ccccc12`, the IC50 worked out at 0.039 mM.

Take `O=C(/C=C\C=C/c1ccc2c(c1)OCO2)N1CCCCC1`: the IC50 worked out at 90.7 mM.

As for `O=c1c(O)c(-c2ccc3c(c2)OCO3)oc2ccccc12`, the IC50 was determined as 0.094 mM.

With `O=c1cc(-c2ccc(Cl)cc2)oc2ccccc12`, the IC50 worked out at 0.725 mM.

For the compound `Cc1ccc(-c2cc(=O)c3ccccc3o2)cc1`, the IC50 came to 6.34 mM.

Turning to `O=C(/C=C/C=C/c1ccccc1)c1ccccc1`, the IC50 came to 113 mM.

In the case of `O=C(/C=C/c1ccc(Cl)cc1)c1ccccc1O`, the IC50 came to 6.1 mM.

Regarding `COc1ccc(/C=C/C(=O)c2ccccc2O)cc1`, the IC50 stood at 190 mM.

On to `CN(C)c1ccc(-c2oc3ccccc3c(=O)c2O)cc1`, for which the half-inhibitory concentration (IC50) turned out to be 0.022 mM.

Turning to `O=C(/C=C/C=C/c1ccccc1)c1ccccc1O`, the IC50 is 7.13 mM.

Turning to `O=c1c(O)c(-c2ccc(Cl)cc2)oc2ccccc12`, the 50% inhibitory concentration (IC50) came to 0.663 mM.

Take `CC(=O)c1ccccc1O`: the IC50 is 155 mM.

As to `O=c1c(O)c(-c2ccco2)oc2ccccc12`, the IC50 was 0.034 mM.

As to `CC(C)(C)c1ccc(-c2cc(=O)c3ccc(O)cc3o2)cc1`, the IC50 stood at 44.3 mM.

For `CC(C)(C)c1ccc(-c2oc3cc(O)cc(O)c3c(=O)c2O)cc1`, the IC50 amounted to 0.709 mM.

In the case of `CC(C)(C)Oc1ccc(-c2oc3cc(O)cc(O)c3c(=O)c2O)cc1`, the IC50 was determined as 0.452 mM.

Regarding `CN(C)c1ccc(-c2oc3cc(O)cc(O)c3c(=O)c2O)cc1`, the IC50 was found to be 0.612 mM.

On to `CC(C)c1ccc(-c2oc3ccccc3c(=O)c2O)cc1`, for which the IC50 amounted to 11 mM.

Regarding `CC(C)c1ccc(-c2cc(=O)c3c(O)cc(O)cc3o2)cc1`, the IC50 was 29.6 mM.

Take `O=c1c(O)c(-c2ccc(Cl)cc2)oc2cc(O)cc(O)c12`: the IC50 was found to be 27.8 mM.

On to `CC(C)(C)c1ccc(/C=C/C(=O)c2ccccc2O)cc1`, for which the IC50 was 17.1 mM.

Take `COc1ccc(-c2oc3ccccc3c(=O)c2O)cc1`: the IC50 worked out at 0.114 mM.

Regarding `O=C(/C=C/c1ccco1)c1ccccc1O`, the IC50 came to 4.27 mM.

Turning to `Cc1ccc(/C=C/C(=O)c2ccccc2O)cc1`, the half-maximal inhibitory concentration (IC50) was found to be 7.72 mM.

`O=C(/C=C/c1ccccc1)c1ccccc1O` [2'-HYDROXYCHALCONE]: the IC50 came out at 78 mM.

For `COc1ccc(-c2cc(=O)c3ccccc3o2)cc1` [4'-METHOXYFLAVONE], the half-maximal inhibitory concentration (IC50) is 682 mM.

As for `O=C1O[C@H]([C@@H](O)CO)C(O)=C1O` [ASCORBIC ACID], the IC50 was 0.033 mM.

Turning to `COc1ccc(O)c(C(C)(C)C)c1.COc1ccc(O)cc1C(C)(C)C` [BUTYLATED HYDROXYANISOLE], the IC50 came to 0.019 mM.

For `O=C/C=C/c1ccccc1` [CINNAMALDEHYDE], the concentration for half-maximal inhibition (IC50) was found to be 372 mM.

For the compound `O=C(O)/C=C/c1ccccc1` [CINNAMIC ACID], the IC50 worked out at 1730 mM.

On to `O=C(O)/C=C/c1ccc(O)cc1` [COUMARIC ACID], for which the IC50 came out at 18.4 mM.

Regarding `O=c1c(O)c(-c2ccccc2)oc2ccccc12` [FLAVONOL], the IC50 was determined as 0.387 mM.

For `O=Cc1ccco1` [FURFURAL], the IC50 was 215 mM.

Take `O=c1c(O)c(-c2ccccc2)oc2cc(O)cc(O)c12` [GALANGIN]: the IC50 turned out to be 0.191 mM.

Consider `O=C(O)c1cc(O)c(O)c(O)c1` [GALLIC ACID], for which the IC50 came to 0.011 mM.

With `COc1c(-c2ccccc2)oc2c(ccc3occc32)c1=O` [KARANJIN], the IC50 was 4.23 mM.

In the case of `O=C1C[C@@H](c2ccccc2)Oc2cc(O)cc(O)c21` [PINOCEMBRIN], the 50% inhibitory concentration (IC50) turned out to be 59.3 mM.

Regarding `COc1c(C(=O)/C=C(\O)c2ccccc2)ccc2occc12` [PONGAMOL], the IC50 came to 11.6 mM.

Take `O=Cc1ccccc1O` [SALICYLADEHYDE]: the IC50 was 96.6 mM.

On to `Cc1c(C)c2c(c(C)c1O)CCC(C)(C(=O)O)O2` (stereo unspecified) [TROLOX], for which the IC50 came to 0.012 mM.
